Laboratory results published in US11396497B2, “Proteasome inhibitors” (New Mexico Tech University Research Park Corporation, priority 2018, dated 2022).
Where two headings read alike, the source gives them in different places.

What was measured:
[1] = target: T1, chymotrypsin-like activity of the 26S proteasome (Homo sapiens, UniProt P28074); assay: Proteasome assay, chymotrypsin-like (ChT-L) activity, Suc-LLVY-AMC, Jurkat cell lysate; format: biochemical; conditions: for IC50: ± S.D., read-out: Proteasome Inhibition ChT-like IC50
T1 construct: endogenous in cells; host or cells: Jurkat (ATCC TIB-152, E6-1 clone) cell lysate
T1 sequence (P28074 60-263): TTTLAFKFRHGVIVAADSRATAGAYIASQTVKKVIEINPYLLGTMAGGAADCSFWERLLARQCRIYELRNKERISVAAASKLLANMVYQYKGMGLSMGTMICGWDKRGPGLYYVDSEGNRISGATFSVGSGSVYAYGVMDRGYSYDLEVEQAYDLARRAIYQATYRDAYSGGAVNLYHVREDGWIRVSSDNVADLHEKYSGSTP
Description: (§1) The lysate was stored at −80° C. until the sample was used for the proteasome assay.
(§2) The compounds were diluted with lysis buffer; 10 μL of the compound-containing solution was added to the test wells at ten times the final concentration. […] The results are reported as the average of at least 3 technical replicates of IC50 values for proteasome inhibition.

[2] = system: RPMI 8226 cells
Description: (§3) The cells were incubated at 37° C. in a humidified atmosphere with 5% CO2.
(§4) 100 μL of cells were added to each well of a 96 well microtiter plate at a concentration of 4×10^4 cells/mL and incubated overnight to allow proper adhesion. (RPMI 8226 cells were plated at 4×10^5 cells/mL). The cells were treated with the panel of test compounds at a series of concentrations, along with vehicle control DMSO and untreated cells as controls. After 48 h incubation, 20 μL of MTT reagent (3-(4,5-dimethylthiazol-2-yl)-2,5-diphenyltetrazolium bromide) in PBS (5 mg/mL) was added to each well of the plates. The plate was incubated for 2 h at 37° C. For adherent cell lines, the media was removed from each well of the plate and the resulting formazan crystals dissolved in 100 μL of DMSO. For RPMI 8226 cells, 200 ul of DMF/SDS mix (50% DMF. 10% w/v SDS pH<4) was used to solubilize the formazan crystals. Optical density (OD) at 490 nm was measured using a microplate reader. Cells treated with 1 μM phenyl arsine oxide (PAO) served as a positive cell-killing control. Technical replicates of these assays were performed in biological quadruplicate, and the three best values were used for analysis in order to eliminate outliers. Data presented are the average IC50 value calculated from at least 3 technical replicates with the corresponding standard deviation.

[3] = system: MCF7 cells
Description: as §3, §4

[4] = system: MDA-MB-231 cells
Description: as §3, §4

[5] = system: MDA-MB-231 cells; assay: MTT assay cytotoxicity MDA-MB-231; conditions: read-out: Cytotoxicity MDA-MB-231 IC50
Description: as §3, §4

[6] = system: MCF7 cells; assay: MTT assay cytotoxicity MCF7; conditions: read-out: Cytotoxicity MCF7 IC50
Description: as §3, §4

[7] = target: T2, trypsin-like activity of the 26S proteasome (Homo sapiens, UniProt Q99436); assay: Proteasome assay, trypsin-like (T-L) activity, SUC-RLR-AMC, Jurkat cell lysate; format: biochemical
T2 construct: endogenous in cells; host or cells: Jurkat (ATCC TIB-152, E6-1 clone) cell lysate
T2 sequence (Q99436 44-277): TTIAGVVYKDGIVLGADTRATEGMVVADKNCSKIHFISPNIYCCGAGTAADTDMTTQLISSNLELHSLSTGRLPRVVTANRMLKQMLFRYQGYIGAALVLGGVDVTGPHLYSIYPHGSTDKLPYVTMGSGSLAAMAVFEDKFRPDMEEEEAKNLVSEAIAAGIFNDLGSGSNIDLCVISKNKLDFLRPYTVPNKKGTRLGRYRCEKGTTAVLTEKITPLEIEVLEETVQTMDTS
Description: as §1, §2

[8] = system: RPMI 8226 cells; assay: MTT assay cytotoxicity RPMI 8226; conditions: read-out: Cytotoxicity RPMI 8226 IC50
Description: as §3, §4

[9] = Table 3, P2/P3 analogues, ± S.D., read-out: Proteasome Inhibition T-L-like IC50
[10] = Table 2, P1 analogues, ± S.D., read-out: Proteasome Inhibition T-L-like IC50

Row | Compound | IC50 ([1]; Table 4, P4 analogues) | IC50 [2] | IC50 [3] | IC50 [4] | IC50 ([1]; Table 3, P2/P3 analogues) | IC50 ([5]; Homo sapiens, MDA-MB-231, 48 h) | IC50 ([6]; Homo sapiens, MCF7, 48 h) | IC50 ([8]; Homo sapiens, RPMI-8226, 48 h) | IC50 [7, 9] | other results
1 | CC[C@H](C)[C@@H]1C(=O)O[C@H]1C(=O)N[C@H](C(=O)N[C@H](C(=O)OCc1ccc(Cl)cc1)C(C)C)C(C)C [Compound 11b, 4-chlorobenzyl((2R,3S)-3-((S)-sec-butyl)-4-oxooxetane-2-carbonyl)-L-valyl-L-valinate] | 10.2 ± 7 nM | 88 ± 12 nM | 954 ± 351 nM | 307 ± 166 nM |  |  |  |  |  | 
2 | CC[C@H](C)[C@@H]1C(=O)O[C@H]1C(=O)N[C@H](C(=O)N[C@H](C(=O)OCc1ccccc1)C(C)(C)C)C(C)C [Compound 10f, Benzyl(S)-2-((S)-2-((2R,3S)-3-((S)-sec-butyl)-4-oxooxetane-2-carboxamido)-3-methylbutanamido)-3,3-dimethylbutanoate] |  |  |  |  | 15.9 ± 1 nM | 1110 ± 582 nM | 1120 ± 332 nM | 1390 ± 131 nM |  | IC50 [7]: 3710 ± 719 nM
3 | CC[C@H](C)[C@@H]1C(=O)O[C@H]1C(=O)N[C@@H](CC(C)C)C(=O)N[C@H](C(=O)OCc1ccccc1)C(C)C [Compound 10h, Benzyl((2R,3S)-3-((S)-sec-butyl)-4-oxooxetane-2-carbonyl)-L-leucyl-L-valinate] |  | 1780 ± 1020 nM | 2350 ± 458 nM | 2080 ± 651 nM | 4.7 ± 1.8 nM |  |  |  | 2560 ± 390 nM | 
4 | CC[C@H](C)[C@@H]1C(=O)O[C@H]1C(=O)N[C@H](C(=O)N[C@@H](Cc1ccccc1)C(=O)OCc1ccccc1)C(C)C [Compound 10c, Benzyl((2R,3S)-3-((S)-sec-butyl)-4-oxooxetane-2-carbonyl)-L-valyl-phenylalaninate] |  |  |  |  | 5.4 ± 2.9 nM |  |  |  | 1660 ± 204 nM | IC50 ([5]; Table 3, MTT, 48 h): 2570 ± 705 nM; IC50 ([6]; Table 3, MTT, 48 h): 2300 ± 142 nM; IC50 ([8]; Table 3, MTT, 48 h): 1040 ± 45 nM
5 | CC[C@H](C)[C@@H]1C(=O)O[C@H]1C(=O)N[C@H](C(=O)N[C@H](C(=O)OCc1ccc(OC)cc1)C(C)C)C(C)C [Compound 11f, 4-methoxybenzyl((2R,3S)-3-((S)-sec-butyl)-4-oxooxetane-2-carbonyl)-L-valyl-L-valinate] | 9 ± 4.2 nM |  |  |  |  |  |  |  |  | IC50 ([5]; Table 4, MTT, 48 h): 265 ± 114 nM; IC50 ([6]; Table 4, MTT, 48 h): 574 ± 96 nM; IC50 ([8]; Table 4, MTT, 48 h): 117 ± 47 nM
6 | CC[C@H](C)[C@@H]1C(=O)O[C@H]1C(=O)N[C@H](C(=O)N[C@H](C(=O)OCC(C)C)C(C)C)C(C)C [Compound 11d, Isobutyl((2R,3S)-3-((S)-sec-butyl)-4-oxooxetane-2-carbonyl)-L-valyl-L-valinate] | 9.4 ± 3.7 nM | 99 ± 7 nM | 634 ± 72 nM | 355 ± 123 nM |  |  |  |  |  | 
7 | C=CCCOC(=O)[C@@H](NC(=O)[C@@H](NC(=O)[C@@H]1OC(=O)[C@H]1[C@@H](C)CC)C(C)C)C(C)C [Compound 11g, But-3-en-1-yl((2R,3S)-3-((S)-sec-butyl)-4-oxooxetane-2-carbonyl)-L-valyl-L-valinate] | 8.7 ± 2 nM | 264 ± 48 nM | 752 ± 384 nM | 361 ± 43 nM |  |  |  |  |  | 
8 | CC[C@H](C)[C@@H]1C(=O)O[C@H]1C(=O)N[C@H](C(=O)N[C@H](C(=O)OCc1ccccc1)C(C)C)C(C)(C)C [Compound 10e, Benzyl((S)-2-((2R,3S)-3-((S)-sec-butyl)-4-oxooxetane-2-carboxamido)-3,3-dimethylbutanoyl)-L-valinate] |  | 1050 ± 750 nM | 2140 ± 122 nM | 1030 ± 644 nM | 22.9 ± 2.5 nM |  |  |  | 5180 ± 1490 nM | subunit selectivity, ChT-L over T-L (in words) [1]: enhanced subunit selectivity
9 | CC(C)C[C@@H]1C(=O)O[C@H]1C(=O)N[C@H](C(=O)N[C@H](C(=O)OCc1ccccc1)C(C)C)C(C)C [Compound 9d, Benzyl ((2R,3S)-3-isobutyl-4-oxooxetane-2-carbonyl)-L-valyl-L-valinate] |  |  |  |  |  | 25300 ± 2940 nM | ~40000 nM | 19900 ± 8060 nM |  | IC50 ([1]; Table 2, P1 analogues): 16 ± 4.7 nM; IC50 [7, 10]: 6670 ± 3440 nM
10 | CC[C@H](C)[C@@H]1C(=O)O[C@H]1C(=O)N[C@@H](Cc1ccccc1)C(=O)N[C@@H](Cc1ccccc1)C(=O)OCc1ccccc1 [Compound 10d, Benzyl((2R,3S)-3-((S)-sec-butyl)-4-oxooxetane-2-carbonyl)-L-phenylalanyl-L-phenylalaninate] |  |  |  |  | 12.6 ± 5.7 nM |  |  |  | 3050 ± 1260 nM | IC50 ([5]; Table 3, MTT, 48 h): 4660 ± 1540 nM; IC50 ([6]; Table 3, MTT, 48 h): 3620 ± 2500 nM; IC50 ([8]; Table 3, MTT, 48 h): 1280 ± 527 nM
11 | CC[C@H](C)[C@@H]1C(=O)O[C@H]1C(=O)N[C@@H](COCc1ccccc1)C(=O)N[C@H](C(=O)OCc1ccccc1)C(C)C [Compound 10j, BenzylO-benzyl-N-((2R,3S)-3-((S)-sec-butyl)-4-oxooxetane-2-carbonyl)-L-seryl-L-valinate] |  |  |  |  | 6.9 ± 0.2 nM |  |  |  | 792 ± 240 nM | IC50 ([5]; Table 3, MTT, 48 h): 2210 ± 764 nM; IC50 ([6]; Table 3, MTT, 48 h): 2760 ± 791 nM; IC50 ([8]; Table 3, MTT, 48 h): 1430 ± 526 nM
12 | CC(C)[C@H](NC(=O)[C@@H]1OC(=O)[C@H]1C1CCC1)C(=O)N[C@H](C(=O)OCc1ccccc1)C(C)C [Compound 9b, Benzyl ((2R,3S)-3-cyclobutyl-4-oxooxetane-2-carbonyl)-L-valyl-L-valinate] |  |  |  |  |  | ~50000 nM | > 50000 nM | 30400 ± 4750 nM |  | IC50 ([1]; Table 2, P1 analogues): 26.5 ± 7.7 nM; IC50 [7, 10]: 3730 ± 775 nM
13 | CC[C@H](C)[C@@H]1C(=O)O[C@H]1C(=O)N[C@@H](Cc1ccccc1)C(=O)N[C@H](C(=O)OCc1ccccc1)C(C)C [Compound 10b, Benzyl((2R,3S)-3-((S)-sec-butyl)-4-oxooxetane-2-carbonyl)-L-phenylalanyl-L-valinate] |  |  |  |  | 7.7 ± 1.7 nM |  |  |  | 3820 ± 812 nM | subunit selectivity, ChT-L over T-L (in words) [1]: enhanced subunit selectivity; IC50 ([5]; Table 3, MTT, 48 h): 3440 ± 722 nM; IC50 ([6]; Table 3, MTT, 48 h): ~5000 nM; IC50 ([8]; Table 3, MTT, 48 h): 2330 ± 610 nM
14 | CC(C)[C@H](NC(=O)[C@@H]1OC(=O)[C@H]1C1CCCC1)C(=O)N[C@H](C(=O)OCc1ccccc1)C(C)C [Compound 9c, Benzyl ((2R,3S)-3-cyclopentyl-4-oxooxetane-2-carbonyl)-L-valyl-L-valinate] |  |  |  |  |  | 20600 ± 3940 nM | ~25000 nM | 1980 ± 1000 nM |  | subunit selectivity, ChT-L over T-L (in words) [1]: greatest selectivity; IC50 ([1]; Table 2, P1 analogues): 13.9 ± 0.6 nM; IC50 [7, 10]: 10200 ± 3390 nM
15 | CC[C@H](C)[C@@H]1C(=O)O[C@H]1C(=O)N[C@H](C(=O)N[C@H](C(=O)OC)C(C)C)C(C)C [Compound 11h, Methyl ((2R,3S)-3-((S)-sec-butyl)-4-oxooxetane-2-carbonyl)-L-valyl-L-valinate] | 24.3 ± 8.2 nM |  |  |  |  | 316 ± 44 nM | 506 ± 207 nM | 293 ± 71 nM |  | 
16 | CC[C@H](C)[C@@H]1C(=O)O[C@H]1C(=O)N[C@H](C(=O)N[C@H](C(=O)OCC1CCCCC1)C(C)C)C(C)C [Compound 11c, Cyclohexylmethyl((2R,3S)-3-((S)-sec-butyl)-4-oxooxetane-2-carbonyl)-L-valyl-L-valinate] | 13 ± 5.2 nM | 461 ± 194 nM | 4570 ± 1650 nM | 1920 ± 917 nM |  |  |  |  |  | 
17 | CC[C@H](C)[C@@H]1C(=O)O[C@H]1C(=O)N[C@H](C(=O)N[C@H](C(=O)OCc1ccccc1)C(C)(C)C)C(C)(C)C [Compound 10g, Benzyl(S)-2-((S)-2-((2R,3S)-3-((S)-sec-butyl)-4-oxooxetane-2-carboxamido)-3,3-dimethylbutanamido)-3,3-dimethylbutanoate] |  |  |  |  | 21.4 ± 8.8 nM | 953 ± 484 nM | 1690 ± 102 nM | 866 ± 532 nM | 4530 ± 2180 nM | 
